“Also recorded” adds a separate entry of the source.
How the values were obtained:
ZF-responsive promoter [1] = experiment: Activation and tunable deactivation of a fluorescent protein using ERT2 and SMASh domains, Jurkat; format: cell-based, human
Experimental: Inducible synthetic transcriptional activation and tunable deactivation of a fluorescent protein in human cell lines using ERT2 and SMASh domains: Three Jurkat T cell lines were tested: (1) ZF-p65-ERT2 (no SMASh, see e.g., FIG. 4); (2) ZF-p65-ERT2-SMASh (C-terminal SMASh); and (3) SMASh-ZF-p65-ERT2 (N-terminal SMASh) (see e.g., FIG. 16A). […] Absence of a SMASh-responsive small molecule (grazoprevir) for 12 days led to equivalent, slow deactivation of the reporter to baseline levels. […] This rapid deactivation of the reporter was compared to the condition lacking the SMASh domain, which led to equivalent slow deactivation as in the “absence of grazoprevir” condition (see e.g., FIG. 16B).

ZF-responsive promoter [2] = experiment: Small molecule inducible synTF activation of fluorescent reporter in HEK293 and Jurkat cell lines; format: cell-based, human; conditions: both HEK293 and Jurkat cell lines; compared to untreated
Source text: Output fluorescence as a function of several different small molecule (e.g., ABA, 4OHT, or grazoprevir) treatment concentrations is also indicated here.
Inducible synTFs were first characterized using GFP (or another detectable marker such as mCherry) as the reporter. The whole system was introduced into Jurkat T cells via lentiviral transduction with multiplicity of infection of 25 to ensure high efficiency, quantifying viral copy number (VCN) with qPCR. To characterize the inducible synTF controllers, cells at 5×10^4 cells each in 96-well plates were inoculated with lentivirus, and eight different drug concentrations were added spanning three orders of magnitude (e.g., GZV 0-10 μM, 4OHT 0-1 μM), and GFP expression levels can be quantified with flow cytometry (see e.g., FIG. 10A-10D). Gene expression levels can be normalized to VCN. From these dose-responses, the dynamic range and threshold of activation can be defined. Since the single vector design can lack a selection marker, transduction efficiency was assumed to be equal to the percentage of GFP positive cells after induction by 4OHT or GZV.
Tunable gene activation was achieved using small molecule inducible synTFs. Inducibility profiles were determined for each of the three inducible synTF activators, in both HEK293 and Jurkat cell lines. The reporter expression was evaluated across time and varying drug concentrations. Day 4 represented the highest levels of expression that were assayed, indicating strong inducible expression in drug-treated lines relative to untreated cell lines (see e.g., FIG. 10A-10D).

ZF-responsive promoter [3] = experiment: Inducible synthetic transcriptional repression of a fluorescent protein, HEK293; format: cell-based, human; conditions: compared to untreated
Experimental: Tunable gene silencing can also be achieved using small molecule inducible synTFs. Inducible synTFs were engineered that were capable of repressing gene expression. The responsive promoter was modified to constitutively express a fluorescent output. The p65 activation domain was replaced with a KRAB repression domain (human-derived silencer), and the same ZF-drug pairs were utilized as the synTF activators. Inducibility profiles were determined for each of the three inducible synTF repressors in HEK cell lines, and there was strong silencing of reporter expression over time in drug-treated lines relative to untreated cell lines (see e.g., FIG. 11A-11B, 12A-12C).

ZF-responsive promoter [4] = experiment: Tunable activation of a fluorescent protein by co-administered 4OHT and GZV, ERT2 and SMASh domains, Jurkat; format: cell-based, human; conditions: co-administration of varying 4OHT and GZV for 4 days
Experimental: Tunable synthetic transcriptional activation of a fluorescent protein in human cell lines using ERT2 and SMASh domains: Two Jurkat T cell lines were tested: (1) ZF-p65-ERT2-SMASh (C-terminal SMASh) and (2) SMASh-ZF-p65-ERT2 (N-terminal SMASh).

ZF-responsive promoter [5] = experiment: Dual-drug regulated IL4 and CD19-CAR expression in CD4+ primary human T cells; format: cell-based
Source text: (see e.g., FIG. 14A-14B).

ZF-responsive promoter [6] = experiment: Inducible repression of a fluorescent protein using ERT2 and SMASh domains, Jurkat; format: cell-based, human; conditions: 6 days; KRAB-, HP1a-, EED-ZF-ERT2-SMASh lines
Experimental: Inducible synthetic transcriptional repression of a fluorescent protein in human cell lines using […] domains: Three Jurkat T cell lines were tested: (1) KRAB-[…] (3) […]. […] Absence of a SMASh-responsive small molecule (GZV) in the negative control led to significant “leaky” repression in the absence of 4OHT (see e.g., FIG. 18).

ZF-responsive promoter [7] = experiment: 4OHT-inducible transcriptional activation of a fluorescent protein using ERT2 domain, Jurkat; format: cell-based, human
Source text: ERT2 nuclear translocation domain, which is responsive to a small molecule (4-hydroxytamoxifen=4OHT), can be used to regulate a synTF as described herein (see e.g., Indra et al. Nucleic Acids Res (1999)). The human estrogen receptor (ER) contains a ligand responsive domain that, when fused to other protein domains, can yield ligand-dependent control over activity. The domain naturally associates with cytoplasmic factors in the cell in the absence of cognate ligands, effectively sequestering itself in the cytoplasm. Binding of cognate ligands, such as estrogen or other steroid hormone derivatives, cause a conformational change to the receptor that allow dissociation from the cytoplasmic complexes and expose a nuclear localization signal, permitting translocation into the nucleus.
Subsequently, the administration of 4OHT can allow conditional nuclear translocation of the synTF, allowing synTF functionality in the cellular nucleus (see e.g., FIG. 4).
Output fluorescence was measured as a function of several different 4OHT treatment concentrations as indicated (dose response; see e.g., FIG. 8A).

ZF-responsive promoter [8] = experiment: Inducible activation of CD19-CAR in CD4+ primary human T cells; format: cell-based
Source text: (§1) Output fluorescence as a function of several different grazoprevir treatment concentrations is also indicated here. […] Cytokine production as a function of several different grazoprevir treatment concentrations is also indicated here (see e.g., FIG. 13A-13D).
(§2) Inducible synTFs can regulate […] expression in primary cells. The grazoprevir-inducible synTF was used to control expression of a CD19-CAR in primary CD4+ cells. […] Such results highlight that the ability to reliably control expression of outputs from therapeutic, thus controlling their functionalities in increasingly complex settings (see e.g., FIG. 13A-13D).

[9] = system: CD19 antigen-presenting target cells; experiment: Co-culture of induced CD19-CAR primary T cells with CD19 antigen-presenting target cells, cytokine production; format: cell-based, human
Source text: as §1, §2

[10] = commonly taken at 100 mg/day for up to 12 weeks; cited from earlier work
ZF-responsive promoter [11] = experiment: Inducible activation of IL10 in Jurkat T cell lines, double or single lentiviral vector; format: cell-based, human; conditions: 1 uM GZV for 2 days
Source text: This inducible activation can be achieved through the delivery of separate lentiviral cassettes for NS3-synTF expression and IL10 production (“double lentiviral vector”), or through the delivery of a single lentiviral cassette expressing the NS3-synTF as well as regulating IL10 production (see e.g., FIG. 15A-15C).
A single lentiviral vector was engineered that was capable of expressing a grazoprevir-inducible synTF that would in turn regulate expression of IL-10. The size of this entire insert including expression elements was 3.5 kB, which is minimal and […] the total payload packaging limits of certain vectors.

ZF-responsive promoter [12] = experiment: Grazoprevir-inducible transcriptional repression of a fluorescent protein, HEK293 and Jurkat; format: cell-based, human; conditions: compared to untreated
ZF-responsive promoter [13] = experiment: Grazoprevir-inducible transcriptional activation of a fluorescent protein using NS3, Jurkat; format: cell-based, human
Source text: Non-structural protein 3 (NS3) domain can be used for small molecule regulated control over synTF activity (see e.g., Lin et al. PNAS (2008)). The non-structural protein 3 (NS3) is a serine protease originating from the hepatitis C virus and is naturally capable of self-excision from expressed proteins.
Subsequently, the administration of one of these small molecules—e.g. grazoprevir—can prevent self-excision of NS3 from the fusion protein, allowing the ZF and effector domains to remain locally coupled and retaining synTF functionality.
In the presence of a small molecule, the NS3 protease activity is inhibited and the fusion protein complex is stabilized, permitting the transcription factor to regulate expression of an output gene from a responsive promoter (see e.g., FIG. 5A-5C).
Output fluorescence was measured as a function of several different grazoprevir treatment concentrations as indicated (dose response) (see e.g., FIG. 9A).

ZF-responsive promoter [14] = experiment: ABA-inducible transcriptional activation of a fluorescent protein using ABI/PYL domains, Jurkat; format: cell-based, human
Source text: ABI/PYL induced proximity domains that are responsive to a small molecule (abscisic acid=ABA) can be used to regulate a synTF as described herein (see e.g., Liang et al. Sci Signal, 2011). The ABA-insensitive 1 (ABI1) and PYR1-like (PYL) domains originating form Arabidopsis thaliana have complementary surfaces that can conditionally interact when coordinated by the small molecule abscisic acid (ABA). ABA is a plant hormone that is naturally present at low levels within the human diet, and is subsequently presumed to be a safe small molecule for human administration.
Subsequently, the administration of ABA can allow conditional dimerization between the ABI1 and PYL subunits, allowing the ZF and effector domains to remain locally coupled and retaining synTF functionality (see e.g., FIG. 3).
Output fluorescence was measured as a function of several different ABA treatment concentrations as indicated (dose response; see e.g., FIG. 7A).

[15] = compared to untreated cell line

Q: With CC/C(=C(\c1ccc(O)cc1)c1ccc(OCCN(C)C)cc1)c1ccccc1 [4OHT, 4-hydroxytamoxifen] as the compound, how does the “fluorescent protein on administration of 4OHT” value (ZF-responsive promoter [1]; 4 days, all three Jurkat lines) read?
A: Its value is “temporal activation of a fluorescent protein”.

Q: What about the “fluorescent protein on removal of 4OHT” value (ZF-responsive promoter [1]; removal from days 6-16, all cell lines) of the same compound?
A: The value was “temporal deactivation of the fluorescent protein”.

Q: What about the “fluorescent protein output on administration of small molecule” value (ZF-responsive promoter [2]) of the same compound?
A: The value was “temporal activation of a fluorescent protein output”.

Q: And the “fluorescent protein output, synTF with repressor effector domain” value (shortened to “fluorescent protein output, synTF”) (ZF-responsive promoter [3])?
A: The value was “temporal silencing of a fluorescent protein output”.

Q: And the “level of fluorescent protein activation” value (ZF-responsive promoter [4])?
A: Its value is “maximal activation”.

Q: What about the IL4 expression (ZF-responsive promoter [5]; ERT2-synTF) of the same compound?
A: Its IL4 expression is “expression and secretion of IL4 cytokine”.

Q: And the “fluorescent protein on administration of 4OHT, repressor synTFs” value (ZF-responsive promoter [6])?
A: Its value is “temporal repression of a fluorescent protein”.

Q: And the “fluorescent protein output on administration of small molecule” value (ZF-responsive promoter [7]; [15])?
A: Its value is “temporal activation of a fluorescent protein output”.

Q: What about the “fluorescent protein output on removal of small molecule” value (“fluorescent protein output on removal” for short) (ZF-responsive promoter [7]; removal after four days) of the same compound?
A: Its value is “temporal de-activation of a fluorescent protein output”.

Q: With C=C[C@@H]1C[C@]1(NC(=O)[C@@H]1C[C@@H]2CN1C(=O)[C@H](C(C)(C)C)NC(=O)O[C@@H]1C[C@H]1CCCCCc1nc3ccc(OC)cc3nc1O2)C(=O)NS(=O)(=O)C1CC1 [grazoprevir] as the compound, how does the “reporter deactivation with SMASh-responsive small molecule” value (ZF-responsive promoter [1]; grazoprevir for 12 days after 4OHT removal) read?
A: Its value is “fast deactivation of the reporter to the baseline levels”.

Q: What about the “fluorescent protein output on administration of small molecule” value (ZF-responsive promoter [2]) of the same compound?
A: The value was “temporal activation of a fluorescent protein output”.

Q: And the CD19-CAR expression (ZF-responsive promoter [8]; CD4+ primary human T cells, several grazoprevir concentrations over time)?
A: The CD19-CAR expression was “temporal activation of a fluorescently-tagged chimeric antigen receptor (CD19-CAR) protein; also recorded: dose-dependent expression of synTF”.

Q: What about the CD19-CAR fold induction (ZF-responsive promoter [8]; day 3, highest concentration) of the same compound?
A: Its CD19-CAR fold induction is “strong fold induction”.

Q: What about the “T-cell activation, cytokine production (IFNgamma, IL-2)” value [9] of the same compound?
A: The value was “T-cell activation, measured by enhanced production of cytokines; also recorded: dose-dependent production of IFNgamma and IL-2 cytokines”.

Q: And the safety profile [10]?
A: Its safety profile is “exceptional safety profile”.

Q: What about the IL10 expression (ZF-responsive promoter [11]) of the same compound?
A: The IL10 expression was “temporal activation of a cytokine (IL10); also recorded: strong induced expression of IL-10”.

Q: And the “fluorescent protein output, synTF” value (ZF-responsive promoter [3])?
A: The value was “temporal silencing of a fluorescent protein output”.

Q: What about the “fluorescent protein output, synTF” value (ZF-responsive promoter [12]) of the same compound?
A: Its value is “temporal silencing of a fluorescent protein output”.

Q: And the “fluorescent protein output on administration of small molecule” value (ZF-responsive promoter [13]; [15])?
A: Its value is “temporal activation of a fluorescent protein output”.

Q: And the “fluorescent protein output on removal” value (ZF-responsive promoter [13]; removal after four days)?
A: The value was “temporal de-activation of a fluorescent protein output”.

Q: What about the “level of fluorescent protein activation” value (ZF-responsive promoter [4]) of the same compound?
A: The value was “little-to-no activation”.

Q: What about the “CD19-CAR expression in dual-drug context” value (ZF-responsive promoter [5]; orthogonal ZF-responsive promoter) of the same compound?
A: The value was “regulated activation of a fluorescently-tagged chimeric antigen receptor (CD19-CAR) protein”.

Q: With CC1=CC(=O)CC(C)(C)[C@@]1(O)/C=C/C(C)=C\C(=O)O [ABA, abscisic acid] as the compound, how does the “fluorescent protein output on administration of small molecule” value (ZF-responsive promoter [2]) read?
A: Its value is “temporal activation of a fluorescent protein output”.

Q: What about the “fluorescent protein output, synTF” value (ZF-responsive promoter [3]) of the same compound?
A: The value was “temporal silencing of a fluorescent protein output”.

Q: And the “fluorescent protein output on administration of small molecule” value (ZF-responsive promoter [14]; [15])?
A: The value was “temporal activation of a fluorescent protein output”.

Q: And the “fluorescent protein output on removal” value (ZF-responsive promoter [14]; removal after four days)?
A: The value was “temporal de-activation of a fluorescent protein output”.

Source: patent publication US11530246B2, “Regulated synthetic gene expression systems” (TRUSTEES OF BOSTON UNIVERSITY, priority 2019, dated 2022)
